How the values were obtained:
Test in all cases: Caliper, Mobility shift assay off-chip
[1] = molecular target: PDPK1 (human) (UniProt O15530)
[2] = tested on: FGFR2 (human), P21802 [N549H]
[3] = molecular target: SIK1 (human) (UniProt P57059)
[4] = molecular target: PAK6 (human) (UniProt Q9NQU5)
[5] = molecular target: MKNK2 (human) (UniProt Q9HBH9)
[6] = molecular target: MAPKAPK3 (human) (UniProt Q16644)
[7] = molecular target: ROCK2 (human) (UniProt O75116)
[8] = molecular target: PLK2 (human) (UniProt Q9NYY3)
[9] = molecular target: ABL1 (human) (UniProt P00519)
[10] = molecular target: TYRO3 (human) (UniProt Q06418)
[11] = molecular target: EPHA5 (human) (UniProt P54756)
[12] = molecular target: PDGFRA (human) (UniProt P16234)
[13] = molecular target: CSNK1G2 (human) (UniProt P78368)
[14] = molecular target: PRKD2 (human) (UniProt Q9BZL6)
[15] = molecular target: PHKG2 (human) (UniProt P15735)
Sequence of PHKG2 (human) (P15735 whole entry, looked up): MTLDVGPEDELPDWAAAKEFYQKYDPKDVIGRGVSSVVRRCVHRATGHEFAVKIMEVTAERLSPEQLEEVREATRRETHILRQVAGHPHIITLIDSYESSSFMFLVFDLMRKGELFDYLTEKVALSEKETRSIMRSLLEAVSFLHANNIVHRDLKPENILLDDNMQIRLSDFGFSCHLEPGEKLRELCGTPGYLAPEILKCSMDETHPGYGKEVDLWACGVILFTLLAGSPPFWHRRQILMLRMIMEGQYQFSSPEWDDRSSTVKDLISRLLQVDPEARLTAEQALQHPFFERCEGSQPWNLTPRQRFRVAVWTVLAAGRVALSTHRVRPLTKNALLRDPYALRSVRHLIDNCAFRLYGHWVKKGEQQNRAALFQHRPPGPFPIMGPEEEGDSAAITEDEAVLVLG

[16] = molecular target: FGFR2 (human) (UniProt P21802)
Sequence of FGFR2 (human) (P21802 whole entry, looked up): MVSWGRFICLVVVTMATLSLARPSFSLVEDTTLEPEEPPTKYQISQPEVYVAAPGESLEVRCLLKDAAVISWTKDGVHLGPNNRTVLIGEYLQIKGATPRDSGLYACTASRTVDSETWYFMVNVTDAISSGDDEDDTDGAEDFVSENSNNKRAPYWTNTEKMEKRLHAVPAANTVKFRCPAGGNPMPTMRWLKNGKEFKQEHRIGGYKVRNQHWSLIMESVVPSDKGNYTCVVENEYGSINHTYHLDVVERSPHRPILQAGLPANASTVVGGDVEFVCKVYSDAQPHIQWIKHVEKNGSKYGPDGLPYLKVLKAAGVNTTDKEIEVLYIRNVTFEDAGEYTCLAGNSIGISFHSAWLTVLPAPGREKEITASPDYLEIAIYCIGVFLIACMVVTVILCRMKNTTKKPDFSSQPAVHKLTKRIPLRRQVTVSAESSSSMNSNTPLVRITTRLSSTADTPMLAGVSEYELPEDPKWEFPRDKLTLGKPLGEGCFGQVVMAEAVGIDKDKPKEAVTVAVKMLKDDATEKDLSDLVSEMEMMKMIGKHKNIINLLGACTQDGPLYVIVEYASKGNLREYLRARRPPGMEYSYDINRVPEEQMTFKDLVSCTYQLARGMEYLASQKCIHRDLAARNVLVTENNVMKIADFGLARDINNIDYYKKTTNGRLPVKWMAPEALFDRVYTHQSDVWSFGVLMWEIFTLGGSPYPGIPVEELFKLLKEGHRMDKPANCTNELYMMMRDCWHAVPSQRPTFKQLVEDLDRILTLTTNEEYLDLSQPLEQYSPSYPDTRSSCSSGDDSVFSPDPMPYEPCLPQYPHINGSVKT

[17] = molecular target: PRKCB2 (human) (UniProt P05771)
[18] = molecular target: MAPK1 (human) (UniProt P28482)
[19] = molecular target: FLT3 (human) (UniProt P36888)
Sequence of FLT3 (human) (P36888 whole entry, looked up): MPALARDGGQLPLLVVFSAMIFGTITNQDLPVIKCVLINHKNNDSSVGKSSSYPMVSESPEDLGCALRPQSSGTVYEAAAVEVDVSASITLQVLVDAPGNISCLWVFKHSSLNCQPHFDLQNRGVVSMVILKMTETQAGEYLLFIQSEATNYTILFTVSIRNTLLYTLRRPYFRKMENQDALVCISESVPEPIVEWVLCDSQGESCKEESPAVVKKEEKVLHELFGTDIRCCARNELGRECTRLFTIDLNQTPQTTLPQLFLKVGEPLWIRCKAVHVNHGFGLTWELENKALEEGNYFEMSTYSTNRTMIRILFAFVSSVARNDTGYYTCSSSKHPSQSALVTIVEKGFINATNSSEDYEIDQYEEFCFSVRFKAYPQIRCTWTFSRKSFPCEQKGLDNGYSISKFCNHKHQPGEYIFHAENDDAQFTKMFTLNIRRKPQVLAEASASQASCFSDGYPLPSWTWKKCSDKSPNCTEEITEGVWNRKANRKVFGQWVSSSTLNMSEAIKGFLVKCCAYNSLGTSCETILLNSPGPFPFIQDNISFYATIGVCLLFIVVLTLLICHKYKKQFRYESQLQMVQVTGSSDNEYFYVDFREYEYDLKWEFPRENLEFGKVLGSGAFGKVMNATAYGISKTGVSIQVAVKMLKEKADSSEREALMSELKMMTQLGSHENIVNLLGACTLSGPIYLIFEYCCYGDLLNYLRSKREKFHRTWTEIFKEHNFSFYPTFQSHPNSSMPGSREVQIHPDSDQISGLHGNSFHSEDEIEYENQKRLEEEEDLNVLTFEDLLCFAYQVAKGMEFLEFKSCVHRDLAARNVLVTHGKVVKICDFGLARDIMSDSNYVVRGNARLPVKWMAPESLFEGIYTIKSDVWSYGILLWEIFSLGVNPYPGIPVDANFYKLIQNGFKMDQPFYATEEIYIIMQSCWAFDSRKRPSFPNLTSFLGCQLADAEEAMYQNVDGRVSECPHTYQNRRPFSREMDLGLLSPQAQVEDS

[20] = molecular target: AKT3 (human) (UniProt Q9Y243)
[21] = molecular target: CDK5 CDK5R1 p25 (human) (UniProt Q15078+Q00535)
[22] = molecular target: STK24 (human) (UniProt Q9Y6E0)
[23] = molecular target: TLK2 (human) (UniProt Q86UE8)
[24] = molecular target: CAMK2G (human) (UniProt Q13555)
Sequence of CAMK2G (human) (Q13555 whole entry, looked up): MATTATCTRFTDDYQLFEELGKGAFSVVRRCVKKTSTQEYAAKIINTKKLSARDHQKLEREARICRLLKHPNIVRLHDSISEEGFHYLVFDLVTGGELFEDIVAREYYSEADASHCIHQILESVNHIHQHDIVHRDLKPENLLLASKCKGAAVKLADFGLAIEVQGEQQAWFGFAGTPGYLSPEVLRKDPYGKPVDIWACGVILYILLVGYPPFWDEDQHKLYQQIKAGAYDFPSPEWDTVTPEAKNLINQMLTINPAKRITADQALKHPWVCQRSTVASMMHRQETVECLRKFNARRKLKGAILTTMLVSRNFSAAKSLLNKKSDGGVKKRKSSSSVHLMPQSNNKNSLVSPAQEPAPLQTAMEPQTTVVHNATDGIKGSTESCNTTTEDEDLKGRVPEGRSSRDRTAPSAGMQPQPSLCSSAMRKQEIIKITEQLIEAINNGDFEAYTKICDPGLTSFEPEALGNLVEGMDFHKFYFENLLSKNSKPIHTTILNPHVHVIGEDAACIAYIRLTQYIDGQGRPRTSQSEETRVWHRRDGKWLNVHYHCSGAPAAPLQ

[25] = molecular target: FLT1 (human) (UniProt P17948)
[26] = molecular target: STK3 (human) (UniProt Q13188)
[27] = molecular target: MARK2 (human) (UniProt Q7KZI7)
[28] = molecular target: PRKG2 (human) (UniProt Q13237)
[29] = molecular target: STK4 (human) (UniProt Q13043)
[30] = molecular target: NEK3 (human) (UniProt P51956)
[31] = molecular target: EPHB4 (human) (UniProt P54760)
[32] = molecular target: EPHB2 (human) (UniProt P29323)
[33] = molecular target: PRKACA (human) (UniProt P17612)
[34] = molecular target: MAPK8 (human) (UniProt P45983)
Sequence of MAPK8 (human) (P45983 whole entry, looked up): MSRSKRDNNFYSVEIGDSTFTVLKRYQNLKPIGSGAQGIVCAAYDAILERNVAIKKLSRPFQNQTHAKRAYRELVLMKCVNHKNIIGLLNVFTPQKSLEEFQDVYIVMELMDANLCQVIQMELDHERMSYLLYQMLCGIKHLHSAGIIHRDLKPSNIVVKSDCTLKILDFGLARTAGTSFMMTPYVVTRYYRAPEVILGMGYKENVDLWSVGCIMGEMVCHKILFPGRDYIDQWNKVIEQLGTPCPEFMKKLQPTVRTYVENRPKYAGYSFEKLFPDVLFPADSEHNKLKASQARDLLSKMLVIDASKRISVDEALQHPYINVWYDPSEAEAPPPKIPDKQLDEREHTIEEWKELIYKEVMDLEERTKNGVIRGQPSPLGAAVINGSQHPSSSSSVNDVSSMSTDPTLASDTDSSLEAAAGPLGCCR

[35] = molecular target: EPHB3 (human) (UniProt P54753)
[36] = tested on: MAPK14 (human), Q16539 [T106M]
[37] = molecular target: NLK (human) (UniProt Q9UBE8)
[38] = molecular target: CDK7 CCNH MNAT1 (human) (UniProt P50613+P51948+P51946)
[39] = molecular target: CDC42BPA (human) (UniProt Q5VT25)
[40] = molecular target: HIPK1 (human) (UniProt Q86Z02)
[41] = molecular target: AKT2 (human) (UniProt P31751)

Sequence of ROCK2 (human) (O75116 whole entry, looked up): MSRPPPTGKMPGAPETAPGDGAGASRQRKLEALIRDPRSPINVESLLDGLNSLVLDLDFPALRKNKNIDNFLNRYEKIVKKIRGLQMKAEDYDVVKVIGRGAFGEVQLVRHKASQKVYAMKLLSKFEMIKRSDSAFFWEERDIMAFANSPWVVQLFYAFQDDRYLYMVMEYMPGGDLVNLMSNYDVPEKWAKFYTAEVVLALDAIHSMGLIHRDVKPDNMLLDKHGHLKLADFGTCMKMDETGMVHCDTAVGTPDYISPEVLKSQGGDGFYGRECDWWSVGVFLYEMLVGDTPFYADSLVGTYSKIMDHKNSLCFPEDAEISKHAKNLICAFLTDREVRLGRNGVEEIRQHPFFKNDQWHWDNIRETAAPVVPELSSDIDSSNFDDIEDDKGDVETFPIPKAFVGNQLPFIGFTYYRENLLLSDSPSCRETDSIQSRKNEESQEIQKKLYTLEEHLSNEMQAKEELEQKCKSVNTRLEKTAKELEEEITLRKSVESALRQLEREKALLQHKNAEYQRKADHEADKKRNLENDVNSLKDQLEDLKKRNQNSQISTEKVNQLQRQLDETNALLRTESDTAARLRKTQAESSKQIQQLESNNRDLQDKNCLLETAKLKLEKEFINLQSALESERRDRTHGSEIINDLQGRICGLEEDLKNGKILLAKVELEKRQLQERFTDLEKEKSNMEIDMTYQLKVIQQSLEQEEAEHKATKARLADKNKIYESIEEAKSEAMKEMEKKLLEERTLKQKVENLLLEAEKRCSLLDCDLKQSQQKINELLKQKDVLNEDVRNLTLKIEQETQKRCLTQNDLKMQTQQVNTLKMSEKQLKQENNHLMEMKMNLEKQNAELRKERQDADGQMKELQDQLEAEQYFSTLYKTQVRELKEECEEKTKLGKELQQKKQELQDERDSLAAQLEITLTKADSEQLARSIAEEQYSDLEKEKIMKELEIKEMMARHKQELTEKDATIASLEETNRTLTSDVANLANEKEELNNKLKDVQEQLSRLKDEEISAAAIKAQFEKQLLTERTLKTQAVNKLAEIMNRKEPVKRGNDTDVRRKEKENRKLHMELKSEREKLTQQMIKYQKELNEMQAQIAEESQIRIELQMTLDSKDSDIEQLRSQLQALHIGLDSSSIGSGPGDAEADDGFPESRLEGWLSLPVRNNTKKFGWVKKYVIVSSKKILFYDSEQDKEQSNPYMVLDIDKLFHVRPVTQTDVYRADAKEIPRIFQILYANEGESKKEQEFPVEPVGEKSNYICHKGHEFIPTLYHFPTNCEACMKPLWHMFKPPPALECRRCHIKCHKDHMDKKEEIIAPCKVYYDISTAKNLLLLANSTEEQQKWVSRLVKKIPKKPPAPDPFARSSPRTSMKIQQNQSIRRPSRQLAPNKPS
Sequence of MAPKAPK3 (human) (Q16644 whole entry, looked up): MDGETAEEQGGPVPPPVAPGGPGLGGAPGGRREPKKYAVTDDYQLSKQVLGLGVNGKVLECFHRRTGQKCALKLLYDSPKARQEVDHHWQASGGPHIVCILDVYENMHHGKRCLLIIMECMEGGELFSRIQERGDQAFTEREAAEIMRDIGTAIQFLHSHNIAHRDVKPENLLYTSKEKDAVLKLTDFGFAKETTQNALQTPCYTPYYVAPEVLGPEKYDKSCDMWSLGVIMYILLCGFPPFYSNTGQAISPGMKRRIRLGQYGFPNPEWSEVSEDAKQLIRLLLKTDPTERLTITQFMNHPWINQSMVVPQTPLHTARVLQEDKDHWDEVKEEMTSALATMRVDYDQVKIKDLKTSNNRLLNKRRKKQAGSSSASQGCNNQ
Sequence of FGFR2 (human), P21802 [N549H] (P21802 whole entry N549H, looked up): as the sequence (P21802 whole entry, looked up) above, with N549H counted along it

With `COc1ccc(C#Cc2ccc3ncc4ncn(-c5ccc(CCN)cc5)c4c3c2)cc1` the residual activity ([1]; compound 10.0 µM) was 43%, the residual activity ([2]; compound 10.0 µM) was 11% and the residual activity ([3]; compound 10.0 µM) was 25%. The residual activity ([4]; compound 10.0 µM) was 112%, the residual activity ([5]; compound 10.0 µM) was 120% and the residual activity ([6]; compound 10.0 µM) was 84%. The residual activity ([7]; compound 10.0 µM) was 67%, the residual activity ([8]; compound 10.0 µM) was 107% and the residual activity ([9]; compound 10.0 µM) was 73%. For the same compound, the residual activity ([10]; compound 10.0 µM) was 19%, the residual activity ([11]; compound 10.0 µM) was 90% and the residual activity ([12]; compound 10.0 µM) was 79%. For the same compound, the residual activity ([13]; compound 10.0 µM) was 39%, the residual activity ([14]; compound 10.0 µM) was 15% and the residual activity ([15]; compound 10.0 µM) was 33%. The residual activity ([16]; compound 10.0 µM) was 65%, the residual activity ([17]; compound 10.0 µM) was 118% and the residual activity ([18]; compound 10.0 µM) was 133%. The residual activity ([19]; compound 10.0 µM) was 8%, the residual activity ([20]; compound 10.0 µM) was 26% and the residual activity ([21]; compound 10.0 µM) was 82%. It also gave a residual activity ([22]; compound 10.0 µM) of 106%, a residual activity ([23]; compound 10.0 µM) of 106% and a residual activity ([24]; compound 10.0 µM) of 58%. For the same compound, the residual activity ([25]; compound 10.0 µM) was 6%, the residual activity ([26]; compound 10.0 µM) was 104% and the residual activity ([27]; compound 10.0 µM) was 108%. For the same compound, the residual activity ([28]; compound 10.0 µM) was 34%, the residual activity ([29]; compound 10.0 µM) was 40% and the residual activity ([30]; compound 10.0 µM) was 88%. The residual activity ([31]; compound 10.0 µM) was 83%, the residual activity ([32]; compound 10.0 µM) was 99% and the residual activity ([33]; compound 10.0 µM) was 51%. The residual activity ([34]; compound 10.0 µM) was 55%, the residual activity ([35]; compound 10.0 µM) was 113% and the residual activity ([36]; compound 10.0 µM) was 79%. It also gave a residual activity ([37]; compound 10.0 µM) of 78%, a residual activity ([38]; compound 10.0 µM) of 73% and a residual activity ([39]; compound 10.0 µM) of 85%. It also gave a residual activity ([40]; compound 10.0 µM) of 78% and a residual activity ([41]; compound 10.0 µM) of 15%.

`C[C@@H](Nc1nc2c(C#CC3CC3)c[nH]c(=O)c2c2cc(-c3cn[nH]c3)ccc12)C(C)(C)C` gave a residual activity ([1]; compound 1.0 µM) of 2%, a residual activity ([2]; compound 1.0 µM) of 23% and a residual activity ([3]; compound 1.0 µM) of 23%. The residual activity ([4]; compound 1.0 µM) was 103%, the residual activity ([5]; compound 1.0 µM) was 30% and the residual activity ([6]; compound 1.0 µM) was 95%. For the same compound, the residual activity ([7]; compound 1.0 µM) was 29%, the residual activity ([8]; compound 1.0 µM) was 72% and the residual activity ([9]; compound 1.0 µM) was 71%. The residual activity ([10]; compound 1.0 µM) was 94%, the residual activity ([11]; compound 1.0 µM) was 109% and the residual activity ([12]; compound 1.0 µM) was 74%. For the same compound, the residual activity ([13]; compound 1.0 µM) was 101%, the residual activity ([14]; compound 1.0 µM) was 96% and the residual activity ([15]; compound 1.0 µM) was 76%. The residual activity ([16]; compound 1.0 µM) was 56%, the residual activity ([17]; compound 1.0 µM) was 105% and the residual activity ([18]; compound 1.0 µM) was 99%. It also gave a residual activity ([19]; compound 1.0 µM) of 43%, a residual activity ([20]; compound 1.0 µM) of 102% and a residual activity ([21]; compound 1.0 µM) of 104%. For the same compound, the residual activity ([22]; compound 1.0 µM) was 125%, the residual activity ([23]; compound 1.0 µM) was 80% and the residual activity ([24]; compound 1.0 µM) was 13%. It also gave a residual activity ([25]; compound 1.0 µM) of 28%, a residual activity ([26]; compound 1.0 µM) of 60% and a residual activity ([27]; compound 1.0 µM) of 87%. For the same compound, the residual activity ([28]; compound 1.0 µM) was 88%, the residual activity ([29]; compound 1.0 µM) was 30% and the residual activity ([30]; compound 1.0 µM) was 104%. For the same compound, the residual activity ([31]; compound 1.0 µM) was 137%, the residual activity ([32]; compound 1.0 µM) was 92% and the residual activity ([33]; compound 1.0 µM) was 106%. It also gave a residual activity ([34]; compound 1.0 µM) of 87%, a residual activity ([35]; compound 1.0 µM) of 132% and a residual activity ([36]; compound 1.0 µM) of 103%. It also gave a residual activity ([37]; compound 1.0 µM) of 85%, a residual activity ([38]; compound 1.0 µM) of 102% and a residual activity ([39]; compound 1.0 µM) of 111%. For the same compound, the residual activity ([40]; compound 1.0 µM) was 109% and the residual activity ([41]; compound 1.0 µM) was 90%.
